Assay results from US20260209249A1, “NOVEL TRICYCLIC COMPOUND AS KRAS G12D INHIBITOR, AND USE THEREOF” (SK Biopharmaceuticals Co., priority 2022, published 2026).
Values belong to the molecule of their own block, whether it stands above or below them.

What was measured:
[1] = target: T1, GDP-KRAS G12D mutant protein (Homo sapiens, UniProt P01116, G12D); assay: Differential scanning fluorimetry (DSF) binding affinity to GDP-KRAS G12D mutant protein; conditions: DSF thermal shift, 10 μM compound, 4 μg KRAS protein
T1 construct: purchased Daegu Gyeongbuk Medical Innovation Foundation (DGMIF), made to order
Method: (§1) Test Example 1: Measurement of Binding Affinity to KRAS G12D Mutant Protein The binding affinities of the compounds according to one embodiment of the present application to the KRAS G12D mutant protein were evaluated using differential scanning fluorimetry (DSF). Differential scanning fluorimetry (DSF) is a method used to study the stability of a protein upon binding to a compound. The experiment can be performed using a real-time PCR (RT-PCR) instrument, and is commonly employed as a screening technique for small-molecule compounds targeting specific proteins. As the temperature increases, folded proteins begin to unfold, during which a hydrophobic dye such as SYPRO Orange binds to the exposed hydrophobic regions of the protein, resulting in a measurable increase in fluorescence intensity (maximum absorption at 470 nm and maximum emission at 570 nm). Protein-compound binding is determined by the difference in the melting temperature (Tm) of the protein in the presence of the compound compared to the Tm in the absence of the compound, expressed as ΔTm. The binding affinity to the KRAS G12D mutant protein was measured using the Protein Thermal Shift Dye kit (#4461146, Applied Biosystems). The GDP-KRAS G12D mutant protein and GppNHp-KRAS G12D mutant protein used in the experiment were recombinant proteins synthesized by the Daegu Gyeongbuk Medical Innovation Foundation (DGMIF) upon request. The analysis of binding between the compound and the KRAS G12D mutant protein was performed according to the following reaction recipe: each test sample contained 4 μg of KRAS protein, 10 μM of the compound, and 2×SYPRO Orange dye. For the GDP-KRAS G12D protein samples, the buffer provided with the Protein Thermal Shift Dye kit was used, while for the GppNHp-KRAS G12D protein samples, 50 mM HEPES (pH 7.5) buffer was used. For the protein-compound binding reaction, the compound was added to the KRAS G12D mutant protein and reacted at room temperature for 30 minutes, followed by the addition of 2×SYPRO Orange dye. The temperature was increased to 25° C.-99° C. (0.05° C./s) using QuantStudiol RT-PCR instrument (Applied Biosystems), and fluorescence was measured using a ROX reporter with filters of 580±10 nm (excitation)/623±14 nm (emission). The measurements obtained at a compound concentration of 10 μM were analyzed using the Protein Thermal Shift Software program (version v1.4, Thermo Fisher Scientific), and the ΔTm (° C.) values, which indicate the binding affinity of the compound to the KRAS G12D mutant protein, were calculated. The DSF measurement results for the compounds according to one embodiment of the present application with respect to the KRAS G12D mutant protein are shown in Table 2.

[2] = target: T2, GppNHp-KRAS G12D mutant protein (Homo sapiens, UniProt P01116, G12D); assay: Differential scanning fluorimetry (DSF) binding affinity to GppNHp-KRAS G12D mutant protein; conditions: DSF thermal shift, 10 μM compound, 4 μg KRAS protein, 50 mM HEPES (pH 7.5)
T2 construct: purchased Daegu Gyeongbuk Medical Innovation Foundation (DGMIF), made to order
Method: as §1

SMILES: C#Cc1c(F)ccc2cc(N)cc(-c3cc4nc(OCC5(CN6CCC7(CC6)CC7(F)F)CC5)nc(N5C[C@H]6CC[C@@H](C5)N6)c4c4cn(C)nc34)c12 [Example 76, 4-(9-((1 R,5S)-3,8-diazabicyclo[3.2.1]octan-3-yl)-7-((1-((1,1-difluoro-6-azaspiro[2.5]octan-6-yl)methyl)cyclopropyl)methoxy)-2-methyl-2H-pyrazolo[4,3-f]quinazolin-4-yl)-5-ethynyl-6-fluoronaphthalen-2-amine]
GDP-KRAS G12D (ΔTmD, ° C.) [1]: 5.17 °C | GppNHp-KRAS G12D (ΔTmD, ° C.) [2]: 1.47 °C

SMILES: Cc1cc2c(o1)c(-c1cc(N)ccc1C(F)(F)F)c(F)c1nc(OC[C@@]34CCCN3C[C@H](F)C4)nc(N3CC4CCC(C3)N4)c12 [Example 49, 3-(1-((1R,5S)-3,8-diazabicyclo[3.2.1]octan-3-yl)-5-fluoro-3-(((2R,7aS)-2-fluorotetrahydro-1H-pyrrolizin-7a(5H)-yl)methoxy)-8-methylfuro[3,2-n]quinazolin-6-yl)-4-(trifluoromethyl)aniline]
GDP-KRAS G12D (ΔTmD, ° C.) [1]: 1.92 °C | GppNHp-KRAS G12D (ΔTmD, ° C.) [2]: 0.73 °C

SMILES: C#Cc1c(F)ccc2cc(N)cc(-c3cc4nc(OC[C@@]56CCCN5C/C(=C\F)C6)nc(N5C[C@H]6CC[C@@H](C5)N6)c4n4ccnc34)c12 [Example 36, 4-(1-((1R,5S)-3,8-diazabicyclo[3.2.1]octan-3-yl)-3-(((S,Z)-2-(fluoromethylene)tetrahydro-1H-pyrrolizin-7a(5H)-yl)methoxy)imidazo[1′,2′:1,6]pyrido[3,2-d]pyrimidin-6-yl)-5-ethynyl-6-fluoronaphthalen-2-amine]
GDP-KRAS G12D (ΔTmD, ° C.) [1]: 7.57 °C | GppNHp-KRAS G12D (ΔTmD, ° C.) [2]: 3.42 °C

SMILES: Cc1cc2[nH]ncc2c(-c2cc3nc(OC[C@@]45CCCN4C[C@H](F)C5)nc(N4[C@@H]5CC[C@H]4CNC5)c3n3ccnc23)c1C(F)(F)F [Example 18, 1-((1 R,5S)-3,8-diazabicyclo[3.2.1]octan-8-yl)-3-(((2R,7aS)-2-fluorotetrahydro-1H-pyrrolizin-7a(5H)-yl)methoxy)-6-(6-methyl-5-(trifluoromethyl)-1H-indazol-4-yl)imidazo[1′,2′:1,6]pyrido[3,2-d]pyrimidine]
GDP-KRAS G12D (ΔTmD, ° C.) [1]: 2.35 °C | GppNHp-KRAS G12D (ΔTmD, ° C.) [2]: 1.01 °C

SMILES: Cc1cc2[nH]ncc2c(-c2cc3nc(OC[C@@]45CCCN4C[C@H](F)C5)nc(N4C[C@H]5CC[C@@H](C4)N5)c3n3ccnc23)c1C(F)(F)F [Example 26, 1-((1 R,5S)-3,8-diazabicyclo[3.2.1]octan-3-yl)-3-(((2R,7aS)-2-fluorotetrahydro-1H-pyrrolizin-7a(5H)-yl)methoxy)-6-(6-methyl-5-(trifluoromethyl)-1H-indazol-4-yl)imidazo[1′,2′:1,6]pyrido[3,2-d]pyrimidine]
GDP-KRAS G12D (ΔTmD, ° C.) [1]: 4.12 °C | GppNHp-KRAS G12D (ΔTmD, ° C.) [2]: 1.01 °C

SMILES: Cc1cc(N)nc(-c2cc3nc(OC[C@@]45CCCN4C[C@H](F)C5)nc(N4[C@@H]5CC[C@H]4CNC5)c3n3ccnc23)c1C(F)(F)F [Example 20, 6-(1-((1R,5S)-3,8-diazabicyclo[3.2.1]octan-8-yl)-3-(((2R,7aS)-2-fluorotetrahydro-1H-pyrrolizin-7a(5H)-yl)methoxy)imidazo[1′,2′:1,6]pyrido[3,2-d]pyrimidin-6-yl)-4-methyl-5-(trifluoromethyl)pyridin-2-amine]
GDP-KRAS G12D (ΔTmD, ° C.) [1]: −0.17 °C | GppNHp-KRAS G12D (ΔTmD, ° C.) [2]: 0.27 °C

SMILES: C#Cc1c(F)ccc2cc(N)cc(-c3cc4nc(OC[C@@]56CCCN5C[C@H](F)C6)nc(N5C[C@H]6CC[C@@H](C5)N6)c4n4ccnc34)c12 [Example 24, 4-(1-((1R,5S)-3,8-diazabicyclo[3.2.1]octan-3-yl)-3-(((2R,7aS)-2-fluorotetrahydro-1H-pyrrolizin-7a(5H)-yl)methoxy)imidazo[1′,2′:1,6]pyrido[3,2-d]pyrimidin-6-yl)-5-ethynyl-6-fluoronaphthalen-2-amine]
GDP-KRAS G12D (ΔTmD, ° C.) [1]: 5.48 °C | GppNHp-KRAS G12D (ΔTmD, ° C.) [2]: 2.07 °C

SMILES: C#Cc1c(F)ccc2cc(O)cc(-c3cc4nc(OC[C@]56CC(=C)CN5C[C@@H](F)C6)nc(N5C[C@H]6CC[C@@H](C5)N6)c4n4ccnc34)c12 [Example 32, 4-(1-((1R,5S)-3,8-diazabicyclo[3.2.1]octan-3-yl)-3-(((2S,7aR)-2-fluoro-6-methylenetetrahydro-1H-pyrrolizin-7a(5H)-yl)methoxy)imidazo[1′,2′:1,6]pyrido[3,2-d]pyrimidin-6-yl)-5-ethynyl-6-fluoronaphthalen-2-ol]
GDP-KRAS G12D (ΔTmD, ° C.) [1]: 9.05 °C | GppNHp-KRAS G12D (ΔTmD, ° C.) [2]: 4.04 °C

SMILES: C#Cc1c(F)ccc2cccc(-c3cc4nc(OC[C@@]56CCCN5C/C(=C\F)C6)nc(N5C[C@H]6CC[C@@H](C5)N6)c4n4ccnc34)c12 [Example 27, 1-((1 R,5S)-3,8-diazabicyclo[3.2.1]octan-3-yl)-6-(8-ethynyl-7-fluoronaphthalen-1-yl)-3-(((S,Z)-2-(fluoromethylene)tetrahydro-1H-pyrrolizin-7a(5H)-yl)methoxy)imidazo[1′,2′:1,6]pyrido[3,2-d]pyrimidine]
GDP-KRAS G12D (ΔTmD, ° C.) [1]: 4.27 °C | GppNHp-KRAS G12D (ΔTmD, ° C.) [2]: 0.71 °C

SMILES: CCc1c(F)ccc2cc(O)cc(-c3cc4nc(OC[C@@]56CCCN5CC(=C(F)F)C6)nc(N5[C@@H]6CC[C@H]5CNC6)c4n4ccnc34)c12 [Example 107, 4-(1-((1 R,5S)-3,8-diazabicyclo[3.2.1]octan-8-yl)-3-(((S)-2-(difluoromethylene)tetrahydro-1H-pyrrolizin-7a(5H)-yl)methoxy)imidazo[1′,2′:1,6]pyrido[3,2-d]pyrimidin-6-yl)-5-ethyl-6-fluoronaphthalen-2-ol]
GDP-KRAS G12D (ΔTmD, ° C.) [1]: 8.91 °C | GppNHp-KRAS G12D (ΔTmD, ° C.) [2]: 4.32 °C

SMILES: Cc1cc2c(o1)c(-c1cccc3sc(N)nc13)c(F)c1nc(OC[C@@]34CCCN3C[C@H](F)C4)nc(N3CC4CCC(C3)N4)c12 [Example 54, 4-(1-((1R,5S)-3,8-diazabicyclo[3.2.1]octan-3-yl)-5-fluoro-3-(((2R,7aS)-2-fluorotetrahydro-1H-pyrrolizin-7a(5H)-yl)methoxy)-8-methylfuro[3,2-n]quinazolin-6-yl)benzo[d]thiazol-2-amine]
GDP-KRAS G12D (ΔTmD, ° C.) [1]: 2.95 °C | GppNHp-KRAS G12D (ΔTmD, ° C.) [2]: 1.61 °C

SMILES: C#Cc1c(F)ccc2cc(O)cc(-c3cc4nc(OC[C@]56CCCN5CC(=C)C6)nc(N5C[C@H]6CC[C@@H](C5)N6)c4n4ccnc34)c12 [Example 33, 4-(1-((1R,5S)-3,8-diazabicyclo[3.2.1]octan-3-yl)-3-(((R)-2-methylenetetrahydro-1H-pyrrolizin-7a(5H)-yl)methoxy)imidazo[1′,2′:1,6]pyrido[3,2-d]pyrimidin-6-yl)-5-ethynyl-6-fluoronaphthalen-2-ol]
GDP-KRAS G12D (ΔTmD, ° C.) [1]: 7.42 °C | GppNHp-KRAS G12D (ΔTmD, ° C.) [2]: 3.59 °C

GDP-KRAS G12D (ΔTmD, ° C.) [1]: 1.90 °C | GppNHp-KRAS G12D (ΔTmD, ° C.) [2]: 0.57 °C
SMILES: CCc1c(F)ccc2cc(O)cc(-c3cc4nc(OC[C@@]56CCCN5C[C@H](F)C6)nc(NCC5(N(C)C)CCC5)c4n4ccnc34)c12 [Example 4, 4-(1-(((1-(dimethylamino)cyclobutyl)methyl)amino)-3-(((2R,7aS)-2-fluorotetrahydro-1H-pyrrolizin-7a(5H)-yl)methoxy)imidazo[1′,2′:1,6]pyrido[3,2-d]pyrimidin-6-yl)-5-ethyl-6-fluoronaphthalen-2-ol]

SMILES: Cc1cc2c(o1)c(-c1nc(N)cc(C)c1C(F)(F)F)c(F)c1nc(OC[C@@]34CCCN3C[C@H](F)C4)nc(N3C[C@H]4CC[C@@H](C3)N4)c12 [Example 60, 6-(1-((1R,5S)-3,8-diazabicyclo[3.2.1]octan-3-yl)-5-fluoro-3-(((2R,7aS)-2-fluorotetrahydro-1H-pyrrolizin-7a(5H)-yl)methoxy)-8-methylfuro[3,2-n]quinazolin-6-yl)-4-methyl-5-(trifluoromethyl)pyridin-2-amine]
GDP-KRAS G12D (ΔTmD, ° C.) [1]: 0.87 °C | GppNHp-KRAS G12D (ΔTmD, ° C.) [2]: 1.61 °C

SMILES: C#Cc1c(F)ccc2cc(N)cc(-c3c(F)c4nc(OCC5(CN6CCC7(CC6)CC7(F)F)CC5)nc(N5C[C@H]6CC[C@@H](C5)N6)c4c4cc(C)oc34)c12 [Example 58, 4-(1-((1R,5S)-3,8-diazabicyclo[3.2.1]octan-3-yl)-3-((1-((1,1-difluoro-6-azaspiro[2.5]octan-6-yl)methyl)cyclopropyl)methoxy)-5-fluoro-8-methylfuro[3,2-f]quinazolin-6-yl)-5-ethynyl-6-fluoronaphthalen-2-amine]
GDP-KRAS G12D (ΔTmD, ° C.) [1]: 6.81 °C | GppNHp-KRAS G12D (ΔTmD, ° C.) [2]: 1.92 °C
